Assay results from PubChem BioAssay AID248 (DTP/NCI, 2004).
Several values for one entry are separate records, joined by “and”; a condition that tells them apart may be missing. Identical values can stand only once. Toxic doses and inconclusive results are not listed.

Test system: L1210 leukemia ip in BDF1 mice, survival T/C
Experiment: NCI In Vivo Anticancer Drug Screen. Data for tumor model L1210 Leukemia (intraperitoneal) in B6D2F1 (BDF1) mice
Conditions: higher = longer survival
How it was run: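 Read-out is survival time, reported as the treated-group measurement over the vehicle-control measurement.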

[1] = endpoint: mean survival time, dose: 25.0 mg/kg/injection, schedule: Q04DX003 (ip), vehicle: saline
[2] = endpoint: mean survival time, dose: 50.0 mg/kg/injection, schedule: Q01DX001 (ip), vehicle: saline
[3] = endpoint: mean survival time, dose: 50.0 mg/kg/injection, schedule: Q04DX003 (ip), vehicle: saline
[4] = endpoint: mean survival time, dose: 100.0 mg/kg/injection, schedule: Q01DX001 (ip), vehicle: saline
[5] = endpoint: mean survival time, dose: 100.0 mg/kg/injection, schedule: Q04DX003 (ip), vehicle: saline
[6] = endpoint: mean survival time, dose: 200.0 mg/kg/injection, schedule: Q01DX001 (ip), vehicle: saline
[7] = endpoint: mean survival time, dose: 400.0 mg/kg/injection, schedule: Q01DX001 (ip), vehicle: saline
[8] = endpoint: mean survival time, dose: 400.0 mg/kg/injection, schedule: Q01DX009 (ip), vehicle: Klucel (hydroxypropylcellulose) (HPC)
[9] = endpoint: mean survival time, dose: 100.0 mg/kg/injection, schedule: Q04DX003 (ip), vehicle: saline with Tween-80

## NCCc1ccc(O)c(O)c1
endpoint: mean survival time, dose: 6.25 mg/kg/injection, schedule: Q03HX024 (ip), vehicle: saline
  T/C: 101 % of control
endpoint: mean survival time, dose: 12.5 mg/kg/injection, schedule: Q03HX004 (ip), vehicle: saline
  T/C: 113 % of control
endpoint: mean survival time, dose: 12.5 mg/kg/injection, schedule: Q03HX024 (ip), vehicle: saline
  T/C: 87 % of control
endpoint: mean survival time, dose: 25.0 mg/kg/injection, schedule: Q01DX001 (ip), vehicle: saline
  T/C: 104 % of control
endpoint: mean survival time, dose: 25.0 mg/kg/injection, schedule: Q01DX009 (ip), vehicle: Klucel (hydroxypropylcellulose) (HPC)
  T/C: 105 % of control
endpoint: mean survival time, dose: 25.0 mg/kg/injection, schedule: Q03HX004 (ip), vehicle: saline
  T/C: 113 % of control
endpoint: mean survival time, dose: 25.0 mg/kg/injection, schedule: Q03HX024 (ip), vehicle: saline
  T/C: 106 % of control
[1]
  T/C: 94 % of control
[2]
  T/C: 100 % of control
endpoint: mean survival time, dose: 50.0 mg/kg/injection, schedule: Q01DX009 (ip), vehicle: Klucel (hydroxypropylcellulose) (HPC)
  T/C: 114 % of control
endpoint: mean survival time, dose: 50.0 mg/kg/injection, schedule: Q01DX009 (ip), vehicle: saline
  T/C: 118 % of control and 119 % of control
endpoint: mean survival time, dose: 50.0 mg/kg/injection, schedule: Q03HX004 (ip), vehicle: saline
  T/C: 124 % of control
endpoint: mean survival time, dose: 50.0 mg/kg/injection, schedule: Q03HX024 (ip), vehicle: saline
  T/C: 115 % of control
[3]
  T/C: 94 % of control
[4]
  T/C: 108 % of control
endpoint: mean survival time, dose: 100.0 mg/kg/injection, schedule: Q03HX024 (ip), vehicle: saline
  T/C: 115 % of control
[5]
  T/C: 97 % of control
endpoint: mean survival time, dose: 150.0 mg/kg/injection, schedule: Q01DX009 (ip), vehicle: saline
  T/C: 104 % of control
[6]
  T/C: 99 % of control
endpoint: mean survival time, dose: 200.0 mg/kg/injection, schedule: Q04DX003 (ip), vehicle: saline
  T/C: 101 % of control
[7]
  T/C: 115 % of control
[8]
  T/C: 152 % of control
endpoint: mean survival time, dose: 400.0 mg/kg/injection, schedule: Q01DX009 (ip), vehicle: saline
  T/C: 123 % of control
endpoint: mean survival time, dose: 400.0 mg/kg/injection, schedule: Q04DX003 (ip), vehicle: saline
  T/C: 94 % of control
endpoint: mean survival time, dose: 600.0 mg/kg/injection, schedule: Q01DX009 (ip), vehicle: saline
  T/C: 103 % of control
endpoint: mean survival time, dose: 800.0 mg/kg/injection, schedule: Q01DX009 (ip), vehicle: saline
  T/C: 122 % of control
endpoint: mean survival time, dose: 800.0 mg/kg/injection, schedule: Q04HX003 (ip), vehicle: saline
  T/C: 108 % of control
endpoint: mean survival time, dose: 1600.0 mg/kg/injection, schedule: Q04HX003 (ip), vehicle: saline
  T/C: 104 % of control
endpoint: median survival time, dose: 20.0 mg/kg/injection, schedule: Q04HX036 (ip), vehicle: saline
  T/C: 92 % of control
endpoint: median survival time, dose: 40.0 mg/kg/injection, schedule: Q01DX009 (sc), vehicle: saline
  T/C: 98 % of control
endpoint: median survival time, dose: 40.0 mg/kg/injection, schedule: Q04HX020 (ip), vehicle: saline
  T/C: 114 % of control
endpoint: median survival time, dose: 40.0 mg/kg/injection, schedule: Q04HX036 (ip), vehicle: saline
  T/C: 106 % of control
endpoint: median survival time, dose: 40.0 mg/kg/injection, schedule: Q11DX017 (ip), vehicle: saline
  T/C: 104 % of control
endpoint: median survival time, dose: 40.0 mg/kg/injection, schedule: Q12HX018 (ip), vehicle: saline
  T/C: 114 % of control
endpoint: median survival time, dose: 80.0 mg/kg/injection, schedule: Q01DX009 (ip), vehicle: saline
  T/C: 118 % of control
endpoint: median survival time, dose: 80.0 mg/kg/injection, schedule: Q01DX009 (oral), vehicle: saline
  T/C: 97 % of control
endpoint: median survival time, dose: 80.0 mg/kg/injection, schedule: Q01DX009 (sc), vehicle: saline
  T/C: 104 % of control
endpoint: median survival time, dose: 80.0 mg/kg/injection, schedule: Q02DX005 (ip), vehicle: saline
  T/C: 111 % of control
endpoint: median survival time, dose: 80.0 mg/kg/injection, schedule: Q04HX020 (ip), vehicle: saline
  T/C: 123 % of control
endpoint: median survival time, dose: 80.0 mg/kg/injection, schedule: Q04HX036 (ip), vehicle: saline
  T/C: 122 % of control
endpoint: median survival time, dose: 80.0 mg/kg/injection, schedule: Q11DX017 (ip), vehicle: saline
  T/C: 120 % of control
endpoint: median survival time, dose: 80.0 mg/kg/injection, schedule: Q12HX010 (ip), vehicle: saline
  T/C: 121 % of control
endpoint: median survival time, dose: 160.0 mg/kg/injection, schedule: Q01DX009 (oral), vehicle: saline
  T/C: 104 % of control
endpoint: median survival time, dose: 160.0 mg/kg/injection, schedule: Q01DX009 (sc), vehicle: saline
  T/C: 96 % of control
endpoint: median survival time, dose: 160.0 mg/kg/injection, schedule: Q04HX036 (ip), vehicle: saline
  T/C: 108 % of control
endpoint: median survival time, dose: 320.0 mg/kg/injection, schedule: Q01DX009 (oral), vehicle: saline
  T/C: 105 % of control
endpoint: median survival time, dose: 320.0 mg/kg/injection, schedule: Q01DX009 (sc), vehicle: saline
  T/C: 103 % of control
endpoint: median survival time, dose: 320.0 mg/kg/injection, schedule: Q02DX005 (ip), vehicle: saline
  T/C: 122 % of control
endpoint: median survival time, dose: 640.0 mg/kg/injection, schedule: Q01DX009 (oral), vehicle: saline
  T/C: 106 % of control
endpoint: median survival time, dose: 640.0 mg/kg/injection, schedule: Q01DX009 (sc), vehicle: saline
  T/C: 103 % of control
endpoint: median survival time, dose: 640.0 mg/kg/injection, schedule: Q02DX005 (ip), vehicle: saline
  T/C: 124 % of control

## NNC(=O)CNc1ccc(F)cc1F
endpoint: mean survival time, dose: 100.0 mg/kg/injection, schedule: Q04DX002 (ip), vehicle: Klucel (hydroxypropylcellulose) (HPC)
  T/C: 101 % of control
endpoint: mean survival time, dose: 200.0 mg/kg/injection, schedule: Q04DX002 (ip), vehicle: Klucel (hydroxypropylcellulose) (HPC)
  T/C: 114 % of control

## CC1=C(C)CC(c2ccccc2)C(C(=O)O)C1 (stereo not drawn)
endpoint: mean survival time, dose: 176.0 mg/kg/injection, schedule: Q01DX001 (ip), vehicle: other
  T/C: 100 % of control
endpoint: mean survival time, dose: 266.0 mg/kg/injection, schedule: Q01DX001 (ip), vehicle: other
  T/C: 100 % of control
endpoint: mean survival time, dose: 400.0 mg/kg/injection, schedule: Q01DX001 (ip), vehicle: other
  T/C: 101 % of control

## Nc1cc2ccncc2c2ccccc12
endpoint: mean survival time, dose: 50.0 mg/kg/injection, schedule: Q01DX009 (ip), vehicle: saline sonified
  T/C: 98 % of control
endpoint: mean survival time, dose: 100.0 mg/kg/injection, schedule: Q01DX009 (ip), vehicle: saline sonified
  T/C: 104 % of control
endpoint: mean survival time, dose: 100.0 mg/kg/injection, schedule: Q04DX003 (ip), vehicle: Klucel (hydroxypropylcellulose) (HPC)
  T/C: 97 % of control
endpoint: mean survival time, dose: 200.0 mg/kg/injection, schedule: Q01DX009 (ip), vehicle: saline sonified
  T/C: 106 % of control
endpoint: mean survival time, dose: 200.0 mg/kg/injection, schedule: Q04DX003 (ip), vehicle: Klucel (hydroxypropylcellulose) (HPC)
  T/C: 108 % of control

## CC1(C)CCC(C)(C)C2CC3C(CC21)C(C)(C)CCC3(C)C (stereo not drawn)
[4]
  T/C: 109 % of control
[6]
  T/C: 112 % of control
[7]
  T/C: 100 % of control

## CC(=O)Nc1ccc(NC(=O)c2cccc(F)c2)cc1
endpoint: mean survival time, dose: 100.0 mg/kg/injection, schedule: Q01DX009 (ip), vehicle: Klucel (hydroxypropylcellulose) (HPC)
  T/C: 86 % of control
endpoint: mean survival time, dose: 200.0 mg/kg/injection, schedule: Q01DX009 (ip), vehicle: Klucel (hydroxypropylcellulose) (HPC)
  T/C: 102 % of control
[8]
  T/C: 91 % of control

## CC1(C)N=C(N)N=C(N)N1c1cccc(OCCCOc2ccc(N)cc2)c1
endpoint: mean survival time, dose: 5.0 mg/kg/injection, schedule: Q01DX001 (ip), vehicle: saline
  T/C: 97 % of control
endpoint: mean survival time, dose: 10.0 mg/kg/injection, schedule: Q01DX001 (ip), vehicle: saline
  T/C: 100 % of control
endpoint: mean survival time, dose: 20.0 mg/kg/injection, schedule: Q01DX001 (ip), vehicle: saline
  T/C: 101 % of control
endpoint: mean survival time, dose: 40.0 mg/kg/injection, schedule: Q01DX001 (ip), vehicle: saline
  T/C: 100 % of control

## Cc1cc(=O)oc2cc(OC(=O)Nc3ccc(Cl)cc3C(F)(F)F)ccc12
endpoint: mean survival time, dose: 100.0 mg/kg/injection, schedule: Q01DX009 (ip), vehicle: saline with Tween-80
  T/C: 97 % of control
endpoint: mean survival time, dose: 200.0 mg/kg/injection, schedule: Q01DX009 (ip), vehicle: saline with Tween-80
  T/C: 97 % of control
endpoint: mean survival time, dose: 400.0 mg/kg/injection, schedule: Q01DX009 (ip), vehicle: saline with Tween-80
  T/C: 92 % of control

## C(=N\n1cnnc1)/c1ccc2c(c1)CCC2
[9]
  T/C: 94 % of control
endpoint: mean survival time, dose: 200.0 mg/kg/injection, schedule: Q04DX003 (ip), vehicle: saline with Tween-80
  T/C: 112 % of control
endpoint: mean survival time, dose: 400.0 mg/kg/injection, schedule: Q04DX003 (ip), vehicle: saline with Tween-80
  T/C: 98 % of control

## CCN(CC)CC(=O)NCC(CCN1CCCCC1)c1cccc2ccccc12 (stereo not drawn)
[1]
  T/C: 98 % of control
[3]
  T/C: 111 % of control
endpoint: mean survival time, dose: 100.0 mg/kg/injection, schedule: Q01DX009 (ip), vehicle: saline
  T/C: 105 % of control
[5]
  T/C: 111 % of control

## CSC(=S)N/N=C(\C)c1ccccn1
[9]
  T/C: 107 % of control

## CCOC(=O)/C(C)=N\N=C(/CCOC)COC
[2]
  T/C: 101 % of control
endpoint: mean survival time, dose: 50.0 mg/kg/injection, schedule: Q01DX009 (ip), vehicle: carboxymethylcellulose (CMC)
  T/C: 117 % of control
[4]
  T/C: 101 % of control
[6]
  T/C: 101 % of control
[7]
  T/C: 95 % of control
endpoint: mean survival time, dose: 400.0 mg/kg/injection, schedule: Q01DX009 (ip), vehicle: carboxymethylcellulose (CMC)
  T/C: 94 % of control
